The nature of this data set: Human HepG2 cell viability assay in 384 well format. Format: toxicity, cell-based. Details: dose 125 nL, time 70.5 hour; cytotoxicity at 70.5 h: concentration not given beside the values. The conditions noted are these: HepG2 cells, read-out: Inhibition.

`Cc1ccc2[nH]c(C(=O)NCCCn3ccnn3)c(C)c2c1`: the cytotoxicity at 70.5 h was 22.6%.

On to `COCCN(Cc1cnn(C)c1)c1nc(C)nc2sccc12`, for which the cytotoxicity at 70.5 h turned out to be 4.75%. The same measure for `Cc1ccc(CS(=O)(=O)NCc2ccco2)cc1`: -4.19%; for `O=S(=O)(Cc1ccc(F)cc1)NCc1ccco1`: -2.47%. The figure for `Cc1cc(=O)[nH]c(=O)n1-c1ccccc1Br` is -2.81%. For the molecule `Cn1c(N2CCOCC2)nc2cc(C(=O)N[C@@H]3CC[C@@H](N)C3)ccc21`, the cytotoxicity at 70.5 h is -5.03%. Take `COc1ccc([C@@H]2C[C@H](NC(C)=O)C[C@H](Cc3ccccc3)O2)cn1`: the cytotoxicity at 70.5 h is -6.79%. The figure for `CC(=O)Nc1ccc(Cl)c(C(=O)N(C)C(C)c2ccncn2)c1` (stereo not drawn) is -0.237%.

For `CC(=O)NCCNc1nc(C2CCCC2)nc2c1cnn2C`, the cytotoxicity at 70.5 h is -5.79%.

As for `O=C(NCCN1CCCCC1)c1cccc(Cl)c1Cl`, the cytotoxicity at 70.5 h was -8.61%.

For the molecule `CSCCC(=O)NCc1cc2n(n1)CCN(C(=O)N(C)C)C2`, the cytotoxicity at 70.5 h was -8.07%. For `O[C@]12CCNC[C@H]1CN(c1nccc3ccccc13)CC2`, the cytotoxicity at 70.5 h was determined as 22.6%. `O=C(c1scc2c1OCCO2)N1CCOC(Cc2ccc(F)cc2)C1` (stereo not drawn): the cytotoxicity at 70.5 h is -0.136%. On to `O=C(c1ccc(Br)o1)N1CCN(Cc2ccc(F)cc2)CC1`, for which the cytotoxicity at 70.5 h turned out to be 7.95%. As to `CC(C)N1CCCn2nc(C(=O)NCCc3c[nH]cn3)cc2C1`, the cytotoxicity at 70.5 h worked out at 19.8%. The same measure for `CN1CCCN(CC(=O)N2CCc3[nH]c(-c4ccccc4)nc3C2)CC1`: -1.3%; for `O=S(=O)(c1c(N2CCCC2)ccc2nonc12)N1CCCC1`: -1.28%; for `Cc1nc(NC(=O)C(C)N2CCN(c3ccccc3F)CC2)sc1C` (stereo not drawn): -2.47%. The same measure for `CCOC(=O)CC1CCCCN1C(=O)c1cc(C)oc1C` (stereo not drawn): 3.76%; for `COCc1cc(CNC(=O)c2cccc3c2OCC3)n[nH]1`: -5.24%.

With `Cc1cccc2sc(NC(=O)CN3CCC(C)CC3)nc12`, the cytotoxicity at 70.5 h is -7.07%. For `Cc1cc(-c2nn3c(C)nnc3s2)n[nH]1`, the cytotoxicity at 70.5 h was determined as 20%. Consider `Cc1cc(C(=O)NCCC(C)C)ccc1NS(C)(=O)=O`, for which the cytotoxicity at 70.5 h was -11%. Regarding `Cc1ccccc1N1CCCN(C(=O)c2nn(C)cc2Cl)CC1`, the cytotoxicity at 70.5 h was 27.7%. Regarding `CC(=O)Nc1ncc(S(=O)(=O)N2CCCC(C)C2)s1` (stereo not drawn), the cytotoxicity at 70.5 h is -3.6%. Regarding `CC(=O)Nc1ncc(S(=O)(=O)N2CCOCC2)s1`, the cytotoxicity at 70.5 h is -1.73%. The figure for `Cc1cc(C)n(CCCN(C)c2cc(N(C)C)ncn2)n1` is -7.08%. The figure for `COCC(Nc1ncnc2sc(C)c(C)c12)c1ccnn1C` (stereo not drawn) is -4.15%; for `Cc1cccc(OCCN2CCN(Cc3noc(C)n3)CC2)c1` it is -2.75%; for `Cc1nc(CN2CCN(CCOc3ccc(C(C)C)c(C)c3)CC2)no1` it is 8.91%. The figure for `Cc1nc(CC(=O)N2CCCC(n3ccnc3C(C)C)C2)cs1` (stereo not drawn) is -6.07%. In the case of `CC(C)c1nccn1C1CCCN(C(=O)CCc2cnn(C)c2)C1` (stereo not drawn), the cytotoxicity at 70.5 h is -10.7%. With `CC(C)c1nccn1C1CCCN(C(=O)CCNS(C)(=O)=O)C1` (stereo not drawn), the cytotoxicity at 70.5 h is -6.32%.

Consider `Cc1nn(C)c(Cl)c1C1CCCN1Cc1noc(C2CC2)n1` (stereo not drawn), for which the cytotoxicity at 70.5 h was -9.55%. The figure for `O=C(NCc1ccco1)N1CCN(Cc2ccc3c(c2)CCO3)CC1` is -6.39%; for `Cc1nccc(-c2cccc(NCC(=O)N3CCOC(C)C3)c2)n1` (stereo not drawn) it is -3.45%.

For the molecule `Cc1nccc(-c2cccc(NCC(=O)N3CCNC(=O)C3)c2)n1`, the cytotoxicity at 70.5 h is -5.62%. On to `Cc1noc(NC(=O)c2ccccc2)n1`, for which the cytotoxicity at 70.5 h is -5.17%.

Take `Cc1nccc(-c2cccc(NCC(=O)NCC(=O)N3CCCC3)c2)n1`: the cytotoxicity at 70.5 h is -3.17%. As for `Cc1ncsc1C(=O)NCCNc1ncccn1`, the cytotoxicity at 70.5 h is 13.7%. As for `Cc1noc(C)c1CN(C)C(=O)c1ccc(C(N)=O)nc1`, the cytotoxicity at 70.5 h is -5.9%. Consider `COc1ccnc(N2CCN(C(=O)c3cccc(C#N)c3)CC2)n1`, for which the cytotoxicity at 70.5 h was -7.44%. The figure for `CCc1nnc2n1CCN(C(=O)c1cc(C)n(-c3ccccc3)c1C)C2` is -4.27%; for `COc1ccc(CN(C)C(=O)NCc2c(C)cc(C)nc2OC)cc1` it is -5.78%; for `Cc1nn(C)c(N(C)C)c1CNCc1ccc2c(c1)OCO2` it is 29.5%.

With `Cc1ccccc1C(C)NC(=O)CSCC#N` (stereo not drawn), the cytotoxicity at 70.5 h is 12.8%.

On to `CCc1nc(C(=O)N2CCN(CC)CC2)nn1-c1ccccc1Cl`, for which the cytotoxicity at 70.5 h is 11.3%. As to `CCc1nc(C(=O)N2CCN(C)CC2)nn1-c1ccccc1Cl`, the cytotoxicity at 70.5 h was 16.1%.

`CCc1noc(C)c1C(=O)N1CCCCC1Cn1cc(C)cn1` (stereo not drawn): the cytotoxicity at 70.5 h is 46.7%.

In the case of `c1ccc(-n2cc(CNCC3CCCN3c3cccnn3)cn2)cc1` (stereo not drawn), the cytotoxicity at 70.5 h was -5.35%. On to `Cc1cnn(CC2CCCN2C(=O)c2c(C)noc2C)c1` (stereo not drawn), for which the cytotoxicity at 70.5 h is -11%.

On to `CC(C)c1nn(C)c(N(C)C)c1CNCc1ccc2c(c1)OCCO2`, for which the cytotoxicity at 70.5 h was -5.83%. The same measure for `O=C(CCc1ccsc1)Nc1cccnc1N1CCCC1`: -6.9%. The same measure for `CN(Cc1ccco1)C(=O)Nc1cccnc1N1CCCC1`: -3.81%. As to `O=C(CCNC(=O)C1CCCC1)NCc1ccccc1Cn1ccnc1`, the cytotoxicity at 70.5 h was -8.37%. In the case of `Cc1ncsc1C(=O)NC1CCN(CCC(=O)Nc2ccccc2)CC1`, the cytotoxicity at 70.5 h is -1.32%. The same measure for `OCCn1nccc1C1CCN(CCOc2ccc(Cl)cc2)CC1`: -1.15%; for `Cc1ccc(OCCN2CCC(c3ccnn3CCO)CC2)cc1`: 3.29%; for `OCCn1nccc1C1CCN(CCOc2ccccc2Cl)CC1`: -0.941%. The figure for `OCCn1nccc1C1CCN(CCOc2ccccc2F)CC1` is -2.7%; for `COc1ccc(OCCN2CCC(c3ccnn3CCO)CC2)cc1` it is -5.41%. The same measure for `CC(C)c1nn(C)c(N2CCOCC2)c1CNC(C)c1ccccn1` (stereo not drawn): -2.55%; for `Cc1cc(C)n(CC2CN(CCOc3ccccc3C#N)CCO2)n1` (stereo not drawn): -5.02%. `N#Cc1cccc(OCCN2CCOC(Cn3cccn3)C2)c1` (stereo not drawn): the cytotoxicity at 70.5 h is -3.46%.

In the case of `Cc1nc(C(=O)N2CCCCC2)nn1-c1ccccc1Cl`, the cytotoxicity at 70.5 h was -7.71%. The figure for `Cc1cnn(C2CCCN(C(=O)c3ccc(N4CCCC4)nn3)C2)c1` (stereo not drawn) is 1.64%; for `O=C(CN1CCc2cncnc2C1)NCCOc1cccc(Cl)c1` it is -4.17%. The figure for `Cc1nn(CC(C)C)c(N(C)C)c1CNCc1ccc2c(c1)OCO2` is -2.13%; for `c1ccc(-n2nnnc2CNCC2CCCN2c2cccnn2)cc1` (stereo not drawn) it is -0.967%; for `CC(C)c1n[nH]c(C2CN(C(=O)c3cc(Cl)c[nH]3)CCO2)n1` (stereo not drawn) it is -8.73%. Regarding `Cc1cc(C(=O)N2CCOC(c3nc(C(C)C)n[nH]3)C2)no1` (stereo not drawn), the cytotoxicity at 70.5 h is -11.9%. Turning to `CC(Cn1cccn1)NCc1nc(-c2ccccn2)no1` (stereo not drawn), the cytotoxicity at 70.5 h is -11.1%. As for `CCOc1ccc2ccccc2c1CNCC1CCNCC1`, the cytotoxicity at 70.5 h came to 9.2%.

Values taken from ChEMBL document CHEMBL3507680, “University of Dundee, Gates Library screen for HepG2 cell viability”.
